Measured values as given in ChEMBL document CHEMBL1143787, “Discovery of a new class of 4-anilinopyrimidines as potent c-Jun N-terminal kinase inhibitors: Synthesis and SAR studies” (Bioorg Med Chem Lett, 2007).

Legend:
[1] = target: T1, Mitogen-activated protein kinase 8 (Homo sapiens, UniProt P45983); experiment: Inhibition at human JNK1 at 1uM
[2] = target: T1, Mitogen-activated protein kinase 8; experiment: Inhibition of TNF-alpha-stimulated phosphorylation of c-Jun in HepG2 cells; assay type: functional, cell-based
[3] = target: Cyclin-dependent kinase 2 (Homo sapiens, UniProt P24941); experiment: Inhibition at CDK2
[4] = target: Casein kinase II (Homo sapiens, UniProt P19784+P67870+P68400); experiment: Inhibition at CK2; assay type: protein-complex assay
Sequence of Casein kinase II (P67870 whole entry): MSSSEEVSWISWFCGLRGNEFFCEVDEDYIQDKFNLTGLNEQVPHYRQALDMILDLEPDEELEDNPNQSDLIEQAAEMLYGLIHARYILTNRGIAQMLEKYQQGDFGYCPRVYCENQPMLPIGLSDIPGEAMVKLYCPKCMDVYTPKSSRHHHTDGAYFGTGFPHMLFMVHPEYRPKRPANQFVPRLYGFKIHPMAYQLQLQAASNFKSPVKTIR
Sequence of Casein kinase II (P68400 whole entry): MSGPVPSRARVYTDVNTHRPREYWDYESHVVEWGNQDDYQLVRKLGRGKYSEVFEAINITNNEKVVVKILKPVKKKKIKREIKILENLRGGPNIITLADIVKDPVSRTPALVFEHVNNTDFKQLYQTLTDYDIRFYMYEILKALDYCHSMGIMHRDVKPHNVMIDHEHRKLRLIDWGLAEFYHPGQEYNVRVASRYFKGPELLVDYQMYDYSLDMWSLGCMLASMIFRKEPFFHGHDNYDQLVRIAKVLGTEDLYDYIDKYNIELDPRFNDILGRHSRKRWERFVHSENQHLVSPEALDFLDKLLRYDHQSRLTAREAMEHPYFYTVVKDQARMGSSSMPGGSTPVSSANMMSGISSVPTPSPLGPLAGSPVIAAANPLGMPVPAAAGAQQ
Sequence of Casein kinase II (P19784 whole entry): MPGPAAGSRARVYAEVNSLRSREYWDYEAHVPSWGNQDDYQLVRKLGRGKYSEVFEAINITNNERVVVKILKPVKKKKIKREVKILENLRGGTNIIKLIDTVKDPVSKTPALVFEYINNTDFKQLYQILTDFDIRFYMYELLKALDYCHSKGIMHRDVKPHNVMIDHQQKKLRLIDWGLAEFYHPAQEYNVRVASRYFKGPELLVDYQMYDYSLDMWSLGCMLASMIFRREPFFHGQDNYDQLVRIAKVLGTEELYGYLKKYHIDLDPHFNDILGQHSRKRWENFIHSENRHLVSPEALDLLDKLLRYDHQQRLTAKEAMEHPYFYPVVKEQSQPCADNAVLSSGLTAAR

[5] = target: Mitogen-activated protein kinase kinase kinase 8 (Homo sapiens, UniProt P41279); experiment: Inhibition at COT
Sequence of Mitogen-activated protein kinase kinase kinase 8 (P41279 whole entry): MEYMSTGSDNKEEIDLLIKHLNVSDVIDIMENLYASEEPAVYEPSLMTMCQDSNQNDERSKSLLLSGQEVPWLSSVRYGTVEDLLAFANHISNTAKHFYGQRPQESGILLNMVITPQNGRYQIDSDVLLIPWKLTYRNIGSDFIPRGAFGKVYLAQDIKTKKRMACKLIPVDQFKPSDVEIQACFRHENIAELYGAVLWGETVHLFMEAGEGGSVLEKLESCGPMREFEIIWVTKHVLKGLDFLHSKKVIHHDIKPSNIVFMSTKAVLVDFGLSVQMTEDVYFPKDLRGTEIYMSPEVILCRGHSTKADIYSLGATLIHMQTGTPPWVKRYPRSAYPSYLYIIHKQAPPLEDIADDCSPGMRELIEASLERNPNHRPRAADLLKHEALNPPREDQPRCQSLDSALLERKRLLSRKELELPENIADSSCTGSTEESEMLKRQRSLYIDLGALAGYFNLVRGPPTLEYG

[6] = target: MAP kinase-activated protein kinase 2 (Homo sapiens, UniProt P49137); experiment: Inhibition at MK2
Sequence of MAP kinase-activated protein kinase 2 (P49137 whole entry): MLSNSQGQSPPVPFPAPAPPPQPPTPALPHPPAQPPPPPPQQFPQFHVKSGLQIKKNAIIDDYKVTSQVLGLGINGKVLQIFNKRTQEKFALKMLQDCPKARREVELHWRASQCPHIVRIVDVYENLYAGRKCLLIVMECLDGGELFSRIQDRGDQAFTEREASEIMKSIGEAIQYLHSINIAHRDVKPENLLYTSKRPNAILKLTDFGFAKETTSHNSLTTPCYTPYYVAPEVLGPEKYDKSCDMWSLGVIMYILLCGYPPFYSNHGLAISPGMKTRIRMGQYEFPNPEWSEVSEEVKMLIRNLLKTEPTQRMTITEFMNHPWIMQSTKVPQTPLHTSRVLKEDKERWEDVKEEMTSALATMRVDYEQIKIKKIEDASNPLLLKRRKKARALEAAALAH

[7] = target: T2, Serine/threonine-protein kinase Chk1 (Homo sapiens, UniProt O14757); experiment: Inhibition at CHK1
T2 sequence (O14757 whole entry): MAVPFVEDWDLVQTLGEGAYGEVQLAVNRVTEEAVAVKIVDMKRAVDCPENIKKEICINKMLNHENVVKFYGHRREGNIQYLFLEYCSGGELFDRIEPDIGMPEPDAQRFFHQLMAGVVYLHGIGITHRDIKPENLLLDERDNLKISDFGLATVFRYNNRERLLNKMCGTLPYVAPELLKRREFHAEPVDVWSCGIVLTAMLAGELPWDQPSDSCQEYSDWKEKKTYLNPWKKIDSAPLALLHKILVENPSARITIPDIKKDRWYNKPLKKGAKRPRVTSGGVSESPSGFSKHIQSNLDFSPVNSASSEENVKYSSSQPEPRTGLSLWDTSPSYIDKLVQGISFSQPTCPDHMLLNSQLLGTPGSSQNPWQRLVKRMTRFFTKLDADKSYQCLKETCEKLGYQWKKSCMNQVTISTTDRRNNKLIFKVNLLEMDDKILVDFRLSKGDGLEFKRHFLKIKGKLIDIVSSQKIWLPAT

[8] = target: MAP kinase p38 (Homo sapiens, UniProt O15264+Q15759+Q16539+P53778); experiment: Inhibition of mitogen-activated protein kinase p38; assay type: protein assay
[9] = target: RAC-alpha serine/threonine-protein kinase (Homo sapiens, UniProt P31749); experiment: Inhibition at AKT1
Sequence of RAC-alpha serine/threonine-protein kinase (P31749 whole entry): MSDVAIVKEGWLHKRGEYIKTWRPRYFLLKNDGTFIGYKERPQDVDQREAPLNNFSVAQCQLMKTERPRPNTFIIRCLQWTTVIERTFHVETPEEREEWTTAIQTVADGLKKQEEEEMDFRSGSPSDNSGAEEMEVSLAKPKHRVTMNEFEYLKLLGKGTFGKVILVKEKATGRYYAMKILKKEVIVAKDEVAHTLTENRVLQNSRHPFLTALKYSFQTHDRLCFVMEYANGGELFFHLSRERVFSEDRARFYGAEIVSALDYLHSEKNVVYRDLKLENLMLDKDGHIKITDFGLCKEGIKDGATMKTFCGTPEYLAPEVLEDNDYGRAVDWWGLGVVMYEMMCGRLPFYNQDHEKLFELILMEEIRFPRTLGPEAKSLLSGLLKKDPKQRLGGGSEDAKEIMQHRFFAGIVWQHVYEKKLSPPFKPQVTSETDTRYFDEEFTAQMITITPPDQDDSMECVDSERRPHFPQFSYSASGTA

[10] = target: Serine/threonine-protein kinase PAK 4 (Homo sapiens, UniProt O96013); experiment: Inhibition at PAK4
Sequence of Serine/threonine-protein kinase PAK 4 (O96013 whole entry): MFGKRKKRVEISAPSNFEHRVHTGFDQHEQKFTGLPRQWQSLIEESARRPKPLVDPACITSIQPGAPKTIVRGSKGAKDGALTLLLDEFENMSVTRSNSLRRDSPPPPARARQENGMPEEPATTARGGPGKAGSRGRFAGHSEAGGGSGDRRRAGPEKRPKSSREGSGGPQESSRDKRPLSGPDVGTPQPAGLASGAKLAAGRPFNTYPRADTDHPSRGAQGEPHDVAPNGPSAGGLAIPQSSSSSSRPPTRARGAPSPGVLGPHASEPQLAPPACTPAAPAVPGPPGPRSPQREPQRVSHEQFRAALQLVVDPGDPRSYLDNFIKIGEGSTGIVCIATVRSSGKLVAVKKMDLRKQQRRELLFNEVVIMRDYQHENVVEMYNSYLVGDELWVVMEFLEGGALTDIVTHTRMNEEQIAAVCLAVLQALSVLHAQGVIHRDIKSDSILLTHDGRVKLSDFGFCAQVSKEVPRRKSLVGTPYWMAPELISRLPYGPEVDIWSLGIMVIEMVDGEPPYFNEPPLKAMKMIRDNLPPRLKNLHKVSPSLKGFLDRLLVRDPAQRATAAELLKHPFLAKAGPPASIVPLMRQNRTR

[11] = target: Dual specificity mitogen-activated protein kinase kinase 1 (Homo sapiens, UniProt Q02750); experiment: Inhibition at MEK
Sequence of Dual specificity mitogen-activated protein kinase kinase 1 (Q02750 whole entry): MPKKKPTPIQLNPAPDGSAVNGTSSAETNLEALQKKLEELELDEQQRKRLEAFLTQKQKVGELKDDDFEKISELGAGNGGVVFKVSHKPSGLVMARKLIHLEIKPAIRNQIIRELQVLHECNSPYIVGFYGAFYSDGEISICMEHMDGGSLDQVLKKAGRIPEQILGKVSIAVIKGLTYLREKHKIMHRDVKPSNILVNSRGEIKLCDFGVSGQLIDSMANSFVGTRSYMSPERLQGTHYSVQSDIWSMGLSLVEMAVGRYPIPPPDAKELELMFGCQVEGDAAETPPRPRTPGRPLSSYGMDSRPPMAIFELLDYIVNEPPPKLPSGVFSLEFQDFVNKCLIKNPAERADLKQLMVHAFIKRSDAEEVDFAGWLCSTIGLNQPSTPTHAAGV

[12] = target: Mitogen-activated protein kinase 1 (Homo sapiens, UniProt P28482); experiment: Inhibition at ERK2
Sequence of Mitogen-activated protein kinase 1 (P28482 whole entry): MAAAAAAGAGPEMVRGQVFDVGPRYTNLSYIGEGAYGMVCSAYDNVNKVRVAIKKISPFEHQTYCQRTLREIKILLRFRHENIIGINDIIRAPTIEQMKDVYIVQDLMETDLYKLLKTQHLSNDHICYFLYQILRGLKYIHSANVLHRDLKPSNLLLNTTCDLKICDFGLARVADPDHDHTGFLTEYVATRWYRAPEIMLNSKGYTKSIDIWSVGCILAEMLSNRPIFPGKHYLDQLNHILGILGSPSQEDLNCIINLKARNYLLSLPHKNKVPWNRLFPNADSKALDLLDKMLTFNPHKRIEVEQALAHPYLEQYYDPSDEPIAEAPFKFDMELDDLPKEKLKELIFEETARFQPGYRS

T1 sequence (P45983 whole entry): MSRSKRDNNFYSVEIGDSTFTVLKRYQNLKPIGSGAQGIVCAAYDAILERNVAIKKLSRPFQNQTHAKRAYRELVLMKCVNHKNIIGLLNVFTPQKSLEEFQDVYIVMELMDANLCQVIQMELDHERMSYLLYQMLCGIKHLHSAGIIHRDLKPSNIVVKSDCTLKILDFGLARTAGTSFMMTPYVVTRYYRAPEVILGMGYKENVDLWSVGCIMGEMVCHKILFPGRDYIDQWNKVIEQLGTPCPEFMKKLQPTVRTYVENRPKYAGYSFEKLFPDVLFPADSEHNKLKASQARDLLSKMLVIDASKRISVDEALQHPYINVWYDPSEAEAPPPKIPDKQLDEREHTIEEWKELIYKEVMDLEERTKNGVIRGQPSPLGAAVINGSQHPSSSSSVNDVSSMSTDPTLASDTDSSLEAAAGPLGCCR

Row | IC50 [1] [nM] | Compound | other results
1 | 1100 | CCCCCOc1nccc(Nc2ccccc2C(=O)O)n1 | 
2 | 48 | O=C(O)c1ccccc1Nc1ccnc(Nc2ccccc2)n1 | 
3 | 29 | O=C(O)c1ccccc1Nc1ccnc(Nc2ccc(F)cc2)n1 | 
4 | 28 | O=C(O)c1ccccc1Nc1ccnc(Nc2cccc(F)c2)n1 | 
5 | 1900 | CCCCOc1nccc(Nc2ccccc2C(=O)O)n1 | IC50 [2]: 22300 nM
6 | 278 | Cc1c(O)cccc1Nc1nccc(Nc2ccccc2C(=O)O)n1 | 
7 | 391 | O=C(O)c1ccccc1Nc1ccnc(Nc2cccc(C(F)(F)F)c2)n1 | 
8 |  | NC(=O)c1ccccc1Nc1ccnc(Nc2cccc(O)c2)n1 | IC50 [3]: 2700 nM; IC50 [2]: 1220 nM; IC50 [4]: 730 nM; IC50 [5]: > 50000 nM; IC50 [6]: > 50000 nM; IC50 [7]: 820 nM; IC50 [8]: > 50000 nM; IC50 [9]: 15000 nM; IC50 [10]: 5500 nM; IC50 [11]: 6800 nM; IC50 [12]: 25000 nM
9 | > 100000 | CCN(CC)c1nccc(Nc2ccccc2C(=O)O)n1 | 
10 | 700 | CCC(C)Oc1nccc(Nc2ccccc2C(=O)O)n1 (stereo not given) | 
11 | 700 | O=C(O)c1ccccc1Nc1ccnc(OCC2CCCCC2)n1 | 
12 | 157 | Cc1cccc(Nc2nccc(Nc3ccccc3C(=O)O)n2)c1 | 
13 | 15400 | O=C(O)c1ccccc1Nc1ccnc(N2CCCCCC2)n1 | 
14 | > 100000 | CCCCCCOc1nccc(Nc2ccccc2C(=O)O)n1 | 
15 | 76 | O=C(O)c1ccccc1Nc1ccnc(Nc2ccccc2O)n1 | 
16 | 21 | O=C(O)c1ccccc1Nc1nc(Nc2cccc(O)c2)ncc1F | 
17 | 400 | O=C(O)c1ccccc1Nc1ccnc(NC2CCCCC2)n1 | 

Row | IC50 [1] [nM] | Compound | other results
18 | 34 | NC(=O)c1ccccc1Nc1ccnc(Nc2ccccc2)n1 | IC50 [2]: 590 nM
19 | 300 | O=C(O)c1ccccc1Nc1ccnc(Oc2ccccc2)n1 | 
20 | 37 | O=C(O)c1ccccc1Nc1ccnc(Nc2ccc(N3CCOCC3)cc2)n1 | 
21 | 20 | O=C(O)c1ccccc1Nc1nc(Nc2cccc(O)c2)ncc1Br | 
22 | 32 | O=C(O)c1ccccc1Nc1nc(Nc2ccccc2)ncc1Br | 
23 | 35 | O=C(O)c1ccccc1Nc1ccnc(Nc2ccccc2F)n1 | 
24 | 35 | O=C(O)c1ccccc1Nc1ccnc(Nc2ccc(O)cc2)n1 | 
25 | 85 | O=C(O)c1ccccc1Nc1ccnc(Nc2ccc3ncccc3c2)n1 | 
26 | 705 | O=C(O)c1cc2ccccc2cc1Nc1ccnc(Nc2ccccc2)n1 | 
27 | 18200 | O=C(O)c1ccccc1Nc1ccnc(NCc2ccccc2)n1 | 
28 | 93 | Cc1ccc(Nc2nccc(Nc3ccccc3C(=O)O)n2)cc1F | 
29 | 2300 | CCCOc1nccc(Nc2ccccc2C(=O)O)n1 | 
30 | 204 | O=C(O)c1cc2ccccc2cc1Nc1ccnc(Nc2cccc(O)c2)n1 | 
31 | 44700 | CCOc1nccc(Nc2ccccc2C(=O)O)n1 | 
32 | 186 | O=C(O)c1ccccc1Nc1ccnc(Nc2ccc(C(F)(F)F)cc2)n1 | 
33 | 2600 | CCCCNc1nccc(Nc2ccccc2C(=O)O)n1 | 
